This is an account of results in ChEMBL document CHEMBL5505985 (Eur J Med Chem, 2024).

For assay [1], the target named is T1, Prostaglandin G/H synthase 2 (Homo sapiens, UniProt P35354).
T1 sequence (P35354 whole entry): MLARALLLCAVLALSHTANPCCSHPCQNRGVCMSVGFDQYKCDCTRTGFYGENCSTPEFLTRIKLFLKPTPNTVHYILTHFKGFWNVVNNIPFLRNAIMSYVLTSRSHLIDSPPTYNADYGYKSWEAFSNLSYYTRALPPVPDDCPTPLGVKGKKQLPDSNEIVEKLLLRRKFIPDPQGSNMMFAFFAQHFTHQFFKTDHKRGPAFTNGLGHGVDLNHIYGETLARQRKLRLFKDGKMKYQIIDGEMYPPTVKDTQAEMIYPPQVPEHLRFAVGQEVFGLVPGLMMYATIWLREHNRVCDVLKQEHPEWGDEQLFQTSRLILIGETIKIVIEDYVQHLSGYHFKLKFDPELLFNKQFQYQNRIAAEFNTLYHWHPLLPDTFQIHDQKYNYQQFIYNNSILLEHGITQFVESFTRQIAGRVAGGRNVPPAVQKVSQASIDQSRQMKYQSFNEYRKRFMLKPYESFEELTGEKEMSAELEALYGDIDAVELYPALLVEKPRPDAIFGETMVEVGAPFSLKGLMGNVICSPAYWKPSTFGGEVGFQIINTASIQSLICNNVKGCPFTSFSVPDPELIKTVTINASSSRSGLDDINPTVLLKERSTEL
Put plainly: Inhibition of human recombinant COX-2 using arachidonic acid as substrate pretreated for 5 mins followed by substrate addition and measured after 2 mins by fluorescence based analysis.

Assay [2] is described as follows: Selectivity index, ratio of IC50 for ovine COX-1 to IC50 for human COX-2.
In assay [3] the test system is RAW264.7. Put plainly: Antiinflammatory activity in LPS-induced mouse RAW264.7 cells assessed as inhibition of NO secretion preincubated for 1 hr followed by LPS stimulation and measured after 24 hrs by Griess assay. Particulars: dose 2-30 µM, time 25.0 hrs. It counts as functional, cell-based. A general note: Griess reagent forms a coloured azo dye with nitrite.
The test system of assay [4] is RAW264.7. Put plainly: Inhibition of LPS-induced NFkappaB activation in mouse RAW264.7 cells assessed as inhibition of IKKalpha phosphorylation level preincubated for 1 hr followed by LPS stimulation and measured after 30 mins by Westernblot analysis. It counts as cell-based. The note with it: dose 10-30 µM, time 1.5 hrs.
Assay [5] concerns RAW264.7. Put plainly: Inhibition of MAPK signalling pathway in LPS induced mouse RAW264.7 cells assessed as effect on ERK phosphorylation level at 10 to 30 uM preincubated for 1 hr followed by LPS stimulation and measured after 30 mins by Westernblot analysis. Format: cell-based. Particulars: dose 10-30 µM, time 1.5 hrs.
Assay [6] has as its system RAW264.7. Put plainly: Inhibition of MAPK signalling pathway in LPS induced mouse RAW264.7 cells assessed as effect on JNK phosphorylation level at 10 to 30 uM preincubated for 1 hr followed by LPS stimulation and measured after 30 mins by Westernblot analysis. Particulars: dose 10-30 µM, time 1.5 hrs. Format: cell-based.

pIC50: −log10 of the molar value. The source made the active and inactive calls. No cut-off for these calls is given here.

For the compound `COc1ccccc1C1=Nn2c(Cc3ccccc3Nc3c(Cl)cccc3Cl)nnc2SC1`, in assay [1], the pIC50 (commonly the IC50 on a negative log10 scale, so that one unit is a factor of ten) was 5.82. Moreover, the Ratio IC50 in assay [2] came to 17.2. The Activity entry in the assay on RAW264.7 [3] was “Dose-Dependent Effect”. In the assay on RAW264.7 [4], the inhibition entry was “Dose-Dependent Effect”. For the same compound, the inhibition result in the assay on RAW264.7 [5] and with RAW264.7 [6] was “inactive” each time.
